Reference: patent US20220265671A1, “METHOD FOR TREATING STROKE BY USING TRICYCLIC DERIVATIVE” (Jeil Pharmaceutical Co., Ltd., priority 2019, published 2022)

What was measured:
Type in all cases: in vivo, human
healthy male volunteers [1] = experiment: Phase 1 clinical test, multi dose escalation: adverse reactions
Protocol: In order to evaluate the safety at the time of a repeated dose of a test drug, a phased clinical test was conducted as determined by the Data Safety Monitoring Board (DSMB) on 24 subjects (8 subjects per cohort: 6 subjects in test group and 2 subjects in placebo group) in 3 dose groups (repeated administration of 150 mg, 300 mg, and 450 mg seven times at intervals of 12 hours) selected from healthy male volunteers in Korea.
A test drug or placebo was mixed with an infusion solution by intravenous injection therapy, and then administered using an infusion pump for 60 minutes (±10 minutes), and the same was repeatedly administered seven times at intervals of 12 hours.
Of the 24 test subjects who were administered the clinical test drug, a total of 7 test subjects developed 12 adverse reactions, and among them, 10 cases were confirmed to be adverse drug reactions. One case (one person) of an adverse reaction occurred in the placebo-administered group. […] Accordingly, it was determined that the tolerability of about 150 to 450 mg of the test drug during the repeated administration at intervals of 12 hours was good.

healthy male volunteers [2] = experiment: Phase 1 clinical test, single dose escalation: adverse reactions
Protocol: In order to evaluate the safety at the time of a single dose of a test drug, a phased clinical test was conducted as determined by the Data Safety Monitoring Board (DSMB) on 40 subjects (8 subjects per cohort: 6 subjects in test group and 2 subjects in placebo group) in 5 dose groups (35 mg, 75 mg, 150 mg, 300 mg, 600 mg) selected from healthy male volunteers in Korea.
A test drug or placebo was mixed with an infusion solution by intravenous injection therapy, and then administered using an infusion pump for 30 minutes (±5 minutes).
Of the 40 test subjects who were administered the clinical test drug, a total of 6 test subjects developed 7 adverse reactions. There were no reported adverse reactions in the placebo-administered group. Of the 7 adverse reactions, 1 case of “dizziness” was a moderate symptom in the test subjects who were administered 600 mg, and all other adverse reactions corresponded to a mild symptom. The subjects were spontaneously recovered from all the adverse reactions without any sequelae. […] Accordingly, it was determined that the drug tolerability of a single dose of the test drug was good in the test dose range.

[3] = tested on: patients with acute ischemic stroke; experiment: Phase II clinical test: Korean version of modified Rankin Scale (K-mRS) at day 90
Protocol: A multi-organ, randomly allocated, double-blind, placebo-controlled, and initial phase II clinical test was conducted on patients with acute ischemic stroke to explore and evaluate the efficacy and safety of the study drug, respectively. This clinical test includes a total of three cohorts, and test subject registration starts from Cohort 1, and when the safety is secured, Cohort 2 is sequentially registered. The registration of Cohort 2 proceeds when the safety is secured after evaluation by the Data Safety Monitoring Board (DSMB) at the time point when all the test subjects of Cohort 1 completed Visit 5 (Day 29). Cohorts 1 and 2 are for confirming the safety and efficacy of the test drug, and based on this, the dose and dosage regimen, and the like of Cohort 3 are determined.
This clinical test is conducted on patients with modified thrombolysis in cerebral infarction (mTICI) 2b or 3 grade reperfusion in angiography after endovascular recanalization therapy (ERT) among patients with severe ischemic stroke in moderate cases confirmed to have undergone acute cerebral artery occlusion of the anterior circulation system. Intravenous tissue plasminogen activator (IV tPA) intravenous administration is permitted when the stroke is indicated before ERT. Furthermore, when angiography is performed for ERT after intravenous tPA administration, patients who have already undergone mTICI 2b-3 reperfusion by a venous tPA effect alone before ERT also become a subject of the clinical test.
The following Cohorts 1 to 3 are administered using an infusion pump after mixing a test drug or control drug with an infusion solution.
Cohort 1. Low-Dose Administration Group • Test drug group: administration of the test drug is started within 30 minutes after reperfusion is confirmed within 6 hours after the onset of the symptom. Immediately after intravenous administration (bolus) of 150 mg of the test drug for 15 minutes, 750 mg of the test drug is intravenously IV infused for 23 hours and 45 minutes (f2 hours). Administration of the test drug should be started within 6.5 hours after the onset of the symptom. • Control drug group: a placebo is administered in the same manner as in the test drug group.
Cohort 2. High-Dose Administration Group • Test drug group: administration of the test drug is started within 30 minutes after reperfusion is confirmed within 6 hours after the onset of the symptom. Immediately after intravenous administration (bolus) of 300 mg of the test drug for 30 minutes, 1500 mg of the test drug is intravenously IV infused for 23 hours and 30 minutes (±2 hours). Administration of the test drug should be started within 6.5 hours after the onset of the symptom. • Control drug group: a placebo is administered in the same manner as in the test drug group.
The most widely used method for evaluating disability or dependence in daily life for people who have suffered from stroke or other neurological disorders is the Korean version of a modified Rankin Scale (K-mRS). The K-mRS is a global functional outcome scale which evaluates disability due to stroke and is the most universally used scale in stroke clinical tests. The K-mRS distribution shift analysis is a method of comparing the overall prognosis of the test group and the control group, and is the most recommended analysis method in clinical tests for acute stroke treatment methods including neuroprotective agents. The K-mRS is a scale of evaluating the patient's global functionality according to the independence of daily life and the degree to which the patient needs others' help, and is divided into 0 to 6 phases (0: normal, 5: severe disability, and 6: death). At the time points of days 29 and 90, a proportion of the K-mRS score evaluated by the evaluator is presented, and the pre-mRS evaluated at the time of screening is used as basic disease information. […]

[4] = repeated dose 150-450 mg, seven times at 12 h intervals
[5] = Cohort 1 (150 mg bolus + 750 mg infusion), n = 9
[6] = Cohort 2 (300 mg bolus + 1500 mg infusion), n = 6

## CCOc1cc(CN2CCOCC2)cc2[nH]c(=O)c3c(c12)NCCC3.Cl.Cl [Test drug, 10-ethoxy-8-(morpholinomethyl)-1,2,3,4-tetrahydrobenzo[h][1,6]naphthyridin-5(6H)-one dihydrochloride]
Healthy male volunteers [1]; 150, 300, 450 mg IV over 60 minutes, seven times at intervals of 12 hours, of the 24 test subjects, includes one person in placebo group
  test subjects who developed adverse reactions: 7
Healthy male volunteers [1]; about 150 to 450 mg at intervals of 12 hours
  tolerability during repeated administration: good
Healthy male volunteers [1]; repeated dose 150-450 mg, entire clinical test
  significant adverse reactions: no significant adverse reactions occurred
Healthy male volunteers [1]; [4]
  adverse reactions confirmed to be adverse drug reactions, cases: 10
  severity of adverse reactions: mild
Healthy male volunteers [1]; repeated dose 150-450 mg, seven times at 12 h intervals, 24 test subjects, one case in placebo group
  number of adverse reactions: 12
Healthy male volunteers [2]; single IV dose 35-600 mg over 30 minutes, 40 test subjects
  number of adverse reactions: 7
Healthy male volunteers [2]; single IV dose 35-600 mg over 30 minutes, of the 40 test subjects, no adverse reactions in placebo group
  test subjects who developed adverse reactions: 6
Healthy male volunteers [2]; single dose 600 mg, all other adverse reactions mild
  moderate adverse reactions (dizziness), cases: 1
Healthy male volunteers [2]; single dose 35-600 mg, entire clinical test
  significant adverse reactions: No significant adverse reactions occurred
Healthy male volunteers [2]; test dose range 35-600 mg IV
  drug tolerability of a single dose: good
[3]; 900 mg of the test drug, day 90
  results of the K-mRS compared to control drug group: far superior
[3]; [5]
  K-mRS classification at the time point of day 90: K-mRS 0~2: 7(77.78) n(%)
  K-mRS classification at the time point of day 90: K-mRS 3~4: 2(22.22) n(%)
  K-mRS classification at the time point of day 90: K-mRS 5~6: 0 n(%)
[3]; Cohort 1 (900 mg), N = 9
  K-mRS (continuous variable) at the time point of day 90, 1st Quartile: 0.00
  K-mRS (continuous variable) at the time point of day 90, 3rd Quartile: 2.00
  K-mRS (continuous variable) at the time point of day 90, Max: 4.00
  K-mRS (continuous variable) at the time point of day 90, Mean(SD): 1.44(1.42)
  K-mRS (continuous variable) at the time point of day 90, Median: 1.00
  K-mRS (continuous variable) at the time point of day 90, Min: 0.00
[3]; Cohort 1, N = 9
  K-mRS classification at the time point of day 90: K-mRS 0: 3(33.33) n(%)
  K-mRS classification at the time point of day 90: K-mRS 1: 2(22.22) n(%)
  K-mRS classification at the time point of day 90: K-mRS 2: 2(22.22) n(%)
  K-mRS classification at the time point of day 90: K-mRS 3: 1(11.11) n(%)
  K-mRS classification at the time point of day 90: K-mRS 4: 1(11.11) n(%)
  K-mRS classification at the time point of day 90: K-mRS 5: 0 n(%)
  K-mRS classification at the time point of day 90: K-mRS 6: 0 n(%)
[3]; [6]
  K-mRS classification at the time point of day 90: K-mRS 0~2: 1(20.00) n(%)
  K-mRS classification at the time point of day 90: K-mRS 3~4: 3(60.00) n(%)
  K-mRS classification at the time point of day 90: K-mRS 5~6: 1(20.00) n(%)
